Experimental data reported in patent US7744897B2, “Human immunodeficiency virus gp41 mimetibody polypeptides” (priority 2003, dated 2010).
Read-outs that look alike come from different tables or passages of the source.

Assays:
[1] = cited from earlier work
[2] = human serum, spiked at 1 mg/ml, 72 hours at 37° C., HPLC
Method: The stability of the T-1249 mimetibody in vitro was determined using HPLC. The T-1249 mimetibody (SEQ ID NO: 1) was spiked into human serum at 1 mg/ml. Using a C18 chromatography matrix, a peak corresponding to the T-1249 mimetibody was resolved from other serum proteins. […] Samples were taken at 0, 5, 25, and 72 hours after the addition of the T-1249 mimetibody into human serum. A background peak was used as a reference for each sample.

[3] = test system: other isolates of HIV including an enfuvirtide-resistant strain; settings: similar experiments
HIV = settings: clinical trials; cited from earlier work

CC[C@H](C)[C@H](NC(=O)[C@H](CCC(N)=O)NC(=O)[C@H](C)NC(=O)[C@H](CCC(N)=O)NC(=O)[C@H](CCC(=O)O)NC(=O)[C@H](CC(C)C)NC(=O)[C@H](CC(C)C)NC(=O)[C@H](C)NC(=O)[C@@H](NC(=O)[C@@H](NC(=O)[C@H](CCCCN)NC(=O)[C@H](CCC(N)=O)NC(=O)[C@H](CCC(=O)O)NC(=O)[C@H](Cc1c[nH]c2ccccc12)NC(=O)[C@H](CCC(=O)O)NC(=O)[C@H](CCC(N)=O)NC(=O)[C@H](Cc1c[nH]c2ccccc12)NC(C)=O)[C@@H](C)CC)[C@@H](C)O)C(=O)N[C@@H](CCC(N)=O)C(=O)N[C@@H](CCC(N)=O)C(=O)N[C@@H](CCC(=O)O)C(=O)N[C@@H](CCCCN)C(=O)N[C@@H](CC(N)=O)C(=O)N[C@@H](CCC(=O)O)C(=O)N[C@@H](Cc1ccc(O)cc1)C(=O)N[C@@H](CCC(=O)O)C(=O)N[C@@H](CC(C)C)C(=O)N[C@@H](CCC(N)=O)C(=O)N[C@@H](CCCCN)C(=O)N[C@@H](CC(C)C)C(=O)N[C@@H](CC(=O)O)C(=O)N[C@@H](CCCCN)C(=O)N[C@@H](Cc1c[nH]c2ccccc12)C(=O)N[C@@H](C)C(=O)N[C@@H](CO)C(=O)N[C@@H](CC(C)C)C(=O)N[C@@H](Cc1c[nH]c2ccccc12)C(=O)N[C@@H](CCC(=O)O)C(=O)N[C@@H](Cc1c[nH]c2ccccc12)C(=O)N[C@@H](Cc1ccccc1)C(N)=O [T-1249 peptide]
plasma half-life ([1]; in vivo): 9 to 14 h

T-1249 mimetibody: Formula (II) polypeptide: V1 QIQ, single copy of T-1249, IgG J region, IgG1 hinge, CH2 and CH3; SEQ ID NO: 1
T-1249 mimetibody remained intact [2]: more than 93%
Activity against other isolates of HIV including an enfuvirtide-resistant strain [3]: active

enfuvirtide
Reduction of viral levels in infected patients (HIV): 1-2 logs
plasma half-life ([1]; human, plasma): about 1.8 hours
